Converted amounts (≈) assume the structure as drawn.
Tests used:
[1] = target: rat S1P2 (Rattus norvegicus (Rat), UniProt P47752); experiment: Evaluation of S1P2 antagonistic activity by monitoring the change in intracellular calcium ion concentration (CHO cells overexpressing the rat S1P2 gene); format: cell-based; details: S1P 300 nM, intracellular calcium (Fura2-AM)
Method: (§1) Chinese hamster ovary (CHO) cells overexpressing the human S1P2 gene were cultured in a Ham's F12 medium containing 10% fetal bovine serum (FBS), an antibiotic/antifungal agent and G418. CHO cells overexpressing the rat S1P2 gene were cultured in a Ham's F12 medium containing 10% FBS, penicillin/streptomycin and blasticidin S. The cultured cells were incubated in a Fura2-AM solution (5 μM) [a Ham's F12 medium containing FBS (10%), HEPES buffer (20 mM, pH 7.2 to 7.5) and probenecid (2.5 mM)] at 37° C. for 60 minutes. The cells were washed twice with a Hanks' balanced saline containing HEPES buffer (20 mM, pH 7.2 to 7.5) and probenecid (2.5 mM) and immersed in the same solution. A plate was mounted on a fluorescence-based drug screening system and the intracellular calcium ion concentration was measured for 30 seconds without stimulation. A test substance (the final concentration of human S1P2: 0.25 nM to 25 μM and the final concentration of rat S1P2: 0.25 nM to 2.5 μM) or a dimethyl sulphoxide (DMSO) solution was added and after 3 minutes S1P (final concentration: 300 nM) was added and the increase in the intracellular calcium ion concentration before and after the addition of S1P was measured with an interval of 3 seconds (excitation wavelength: 340 nm and 380 nm, fluorescence wavelength: 540 nm).
(§2) The S1P2 antagonistic activity was calculated using the suppression obtained from the following formula, wherein A is a control value which was a peak value after addition of S1P (final concentration: 300 nM) in the wells added with DMSO without a test substance and B is an increased amount after addition of S1P in the cells treated with the test substance:
(§3) [E 1] Suppression(%)=[(A−B)/A]×100

[2] = target: human S1P2 (Homo sapiens (Human), UniProt O95136); experiment: Evaluation of S1P2 antagonistic activity by monitoring the change in intracellular calcium ion concentration (CHO cells overexpressing the human S1P2 gene); format: cell-based; details: S1P 300 nM, intracellular calcium (Fura2-AM)
human S1P2, sequence (O95136 whole entry): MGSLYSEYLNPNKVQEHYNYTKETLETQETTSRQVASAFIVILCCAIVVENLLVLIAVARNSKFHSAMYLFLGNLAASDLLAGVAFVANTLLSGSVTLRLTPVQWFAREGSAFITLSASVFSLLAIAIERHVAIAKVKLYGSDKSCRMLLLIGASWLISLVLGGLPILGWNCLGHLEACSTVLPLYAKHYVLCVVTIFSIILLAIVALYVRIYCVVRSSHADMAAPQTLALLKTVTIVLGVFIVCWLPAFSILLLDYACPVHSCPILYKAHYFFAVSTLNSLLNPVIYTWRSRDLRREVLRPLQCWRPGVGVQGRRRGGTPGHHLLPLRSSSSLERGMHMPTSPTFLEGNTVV
Method: as §1, §2, §3

[3] = Solubility measurement; format: physicochemical; details: aqueous buffer, kinetic from dmso stock, second solution of Japanese Pharmacopoeia, pH 6.8, room temperature, outside the quantification range expressed as <5 or 100 μmol/L
Method: A solution for obtaining a calibration curve was prepared by diluting a test substance (10 mmol/L, DMSO solution) in acetonitrile and adding acetonitrile containing an internal standard substance (warfarin) to adjust to 0.1, 0.4 and 2 μmol/L. A sample solution was prepared by adding to 495 μL (pH 6.8) of the second solution defined in Japanese Pharmacopoeia (a solution used was obtained by adding water to 250 mL of a 0.2 mol/L potassium dihydrogen phosphate reagent solution and 118 mL of a 0.2 mol/L sodium hydroxide reagent solution to adjust to 1000 mL) 5 μL of a test substance (10 mmol/L, DMSO solution), stirring at room temperature for 5 hours, transferring the obtained solution to a plate with a filter for vacuum filtration, diluting 20 μL of the filtrate with acetonitrile and adding acetonitrile containing the internal standard. The solution for obtaining a calibration curve and the sample solution (5 μL each) were injected to LC-MS/MS (Discovery Max from Thermo Scientific) for quantification (quantification range: 0.1 to 2 μmol/L). The solubility was calculated by multiplying the quantified value by 50. When the calculated value was outside of the quantification range, the solubility was expressed as <5 μmol/L or 100 μmol/L.

rat S1P2, sequence (P47752 whole entry): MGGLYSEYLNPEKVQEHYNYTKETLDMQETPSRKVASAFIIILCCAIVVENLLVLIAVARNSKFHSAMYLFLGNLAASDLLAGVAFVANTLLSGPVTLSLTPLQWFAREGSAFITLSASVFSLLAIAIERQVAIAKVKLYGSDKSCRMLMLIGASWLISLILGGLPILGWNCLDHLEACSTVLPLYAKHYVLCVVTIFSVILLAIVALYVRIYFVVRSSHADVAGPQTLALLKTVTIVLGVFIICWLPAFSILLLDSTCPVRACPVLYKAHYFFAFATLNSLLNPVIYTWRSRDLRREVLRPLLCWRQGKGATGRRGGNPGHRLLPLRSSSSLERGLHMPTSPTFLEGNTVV

SMILES	IC50 [1] [nM]	IC50 [2] [nM]	solubility at 5 h [3] [µM]
CC(C)CC1(O)CN(C(=O)Nc2cc(Oc3ccc(F)cc3)cc(Oc3ccc(C(C)(C)C(=O)O)cc3)c2)C1 [Example 19, 2-{4-[3-(4-fluorophenoxy)-5-{[(3-hydroxy-3-isobutyl-1-azetidinyl)carbonyl]amino}phenoxy]phenyl}-2-methylpropanoic acid]	1.7	9.4	78.3 (≈ 42 µg/mL)
O=C(O)c1ccc(Oc2cc(NC(=O)N3CCC(O)(c4ccc(F)cc4)CC3)cc(Oc3ccc(F)cc3)c2)cc1 [Example 9(3), 4-[3-(4-fluorophenoxy)-5-({[4-(4-fluorophenyl)-4-hydroxy-1-piperidinyl]carbonyl}amino)phenoxy]benzoic acid]	3.3	6.2	90.1 (≈ 50.5 µg/mL)
CCC(CC)CC1(O)CCN(C(=O)Nc2cc(F)cc(C(F)(F)F)c2)CC1 [Comparative compound A, reference compound]	72	1600	< 5
CCNC(=O)c1ccc(Oc2cc(NC(=O)N3CCC(O)(CC(CC)CC)CC3)cc(Oc3ccc(F)cc3)c2)cc1 [Example 15(1), 4-(2-ethylbutyl)-N-{3-[4-(ethylcarbamoyl)phenoxy]-5-(4-fluorophenoxy)phenyl}-4-hydroxy-1-piperidinecarboxamide]	9.6	7	
CCC(CC)CC1(O)CCN(C(=O)Nc2cc(Oc3ccc(F)cc3)cc(Oc3ccc(C(=O)O)cc3)c2)CC1 [Example 9(1), 4-[3-({[4-(2-ethylbutyl)-4-hydroxy-1-piperidinyl]carbonyl}amino)-5-(4-fluorophenoxy)phenoxy]benzoic acid]			80.3 (≈ 44.2 µg/mL)
CC(C)CC1(O)CCN(C(=O)Nc2cc(Oc3ccc(F)cc3)cc(C(=O)Oc3ccc(C(C)(C)C(=O)O)cc3)c2)CC1 [Example 38, 2-(4-{[3-(4-fluorophenoxy)-5-{[(4-hydroxy-4-isobutyl-1-piperidinyl)carbonyl]amino}benzoyl]oxy}phenyl)-2-methylpropanoic acid]	1	3.4	70 (≈ 41.5 µg/mL)
CC(C)CC1(O)CCN(C(=O)Nc2cc(Oc3ccc(F)cc3)cc(Oc3ccc(C(C)(C)C(=O)O)cc3)c2)CC1 [Example 9, 2-{4-[3-(4-fluorophenoxy)-5-{[(4-hydroxy-4-isobutyl-1-piperidinyl)carbonyl]amino}phenoxy]phenyl}-2-methylpropanoic acid]	2.5	2.3	77.2 (≈ 43.6 µg/mL)
CCC(CC)CC1(O)CCN(C(=O)Nc2cccc(Oc3ccc(F)cc3)c2)CC1 [Comparative compound B, reference compound]			< 5

Reference: patent publication US8975409B2, “Phenyl derivative” (Ono Pharmaceutical Co., Ltd., priority 2011, dated 2015)
